EP3925949A1, “AZIDO COMPOUNDS AND METHOD FOR MONITORING ACID CERAMIDASE ACTIVITY IN INTACT CELLS USING THEM” (Consejo Superior de Investigaciones Científicas (CSIC), priority 2020, dated 2021)

Experiments:
acid ceramidase (AC) [1] = molecular target: T1, acid ceramidase (AC) (Homo sapiens, UniProt Q13510); assay: Hydrolysis of RBM5-177 by lysates of AC overexpressing cells, UPLC-HRMS; format: biochemical; design: expressed in transfected cells; host or cells: A375/+Dox (overexpressing AC); conditions: lysates from A375/+Dox cells, 30 min
T1 sequence (Q13510 143-395 limits assumed): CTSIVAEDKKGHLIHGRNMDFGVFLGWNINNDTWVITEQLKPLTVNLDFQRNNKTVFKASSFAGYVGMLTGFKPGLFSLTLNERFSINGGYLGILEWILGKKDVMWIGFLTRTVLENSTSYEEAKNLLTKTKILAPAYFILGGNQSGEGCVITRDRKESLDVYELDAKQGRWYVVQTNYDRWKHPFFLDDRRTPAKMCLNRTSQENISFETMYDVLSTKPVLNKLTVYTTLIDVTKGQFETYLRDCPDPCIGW
T1 sequence (Q13510 22-142 limits assumed): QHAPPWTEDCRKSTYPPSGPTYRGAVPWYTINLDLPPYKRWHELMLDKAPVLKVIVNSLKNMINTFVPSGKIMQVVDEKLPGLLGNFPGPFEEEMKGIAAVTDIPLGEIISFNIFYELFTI
Method: Cells were suspended in the appropriate volume of a 0.25 M saccharose solution with the proteases inhibitors aprotinin (1 mg/ml), leupeptin (1 mg/mml) and PMSF (100 mM). The suspension was submitted to three cycles of a 5 s sonication (probe) at 10 watts/5 s resting on ice. The cell lysate was centrifuged at 600 g for 5 min. The supernatant was collected and protein concentration was determined as specified below.
Cells were seeded at 5 × 10^5 cells/mL into 6 well plates (1 mL/well) and were allowed to adhere for 24 h. Medium was replaced with fresh medium containing RBM5-177, RBM5-019 or RBM2-37 (5 µM final concentration). After 30 min, medium was removed; cells were washed with 400 µL PBS and harvested with 400 µL Trypsin-EDTA and 600 µL of medium. NC recombinant enzyme, […], MEF5 or microsomes from HeLa T-Rex ACER1-TET-ON and HeLa T-Rex […] activity buffer. Cell pellets were resuspended with 100 µL of H2O and mixed with 750 µL of methanol: chloroform, 2:1. Samples were heated at 48°C overnight and next day, 75 µL of 1 M KOH in methanol were added, followed by 2 h incubation at 37°C. Afterwards, the saponification was neutralised with 75 µL of 1 M acetic acid and solvent was removed using a Speed Vac Savant SPD131 DDA (Thermo Scientific). […]

acid ceramidase (AC) [2] = molecular target: T1, acid ceramidase (AC); assay: AC activity by flow cytometry with RBM5-177/CO-1 in intact cells; format: cell-based; design: expressed in transfected cells; host or cells: A375/+Dox and FD/AC (overexpressing AC); A375/-Dox and A549 (endogenous AC)
Method: Cells were seeded at 1 × 10^5 cells/mL into 6 well plates (1 mL/well) and were allowed to adhere for 24 h. Medium was replaced with fresh medium containing Soclac (5 µM final concentration) and incubated for 1 h. After this time, the medium was replaced with RBM5-177, RBM5-019 or RBM2-37 (5 µM final concentration) +/- Soclac and incubated for 20 min. In the experiments with DM120, the compound, Soclac and RBM5-177 were incubated together for 4 h. After probes incubation, the medium was replaced with fresh medium containing CO-1 (1 µM final concentration), and cells were incubated for 10 min. Then cells were washed 3 times with DMEM for 5 min at 37 °C, and finally washed with 400 µL PBS and harvested with 400 µL Trypsin-EDTA and 600 µL of medium. Pellets were resuspended with 200 µL of PBS and stained cells were analyzed by using a Guava EasyCyte™ flow cytometer (Merck Millipore, Billerica, MA) measuring green fluorescence (488/525 nm). Data analysis was performed using the Multicycle AV program (Phoenix Flow Systems, San Diego, CA).

| SMILES | RBM5-19 formation (hydrolysis as substrate) (acid ceramidase (AC) [1]; RBM5-177 5 µM) | increase in the number of fluorescent counts over FD (acid ceramidase (AC) [2]; FD/AC cells versus AC deficient FD cells, RBM5-177 5 µM 4 h, CO-1) [fold] | inhibition of the formation of RBM5-19 from RBM5-177 (acid ceramidase (AC) [1]; SOCLAC 5 µM, 1 h, then RBM5-177 5 µM) | effect on number of fluorescent counts (acid ceramidase (AC) [2]; A375 cells, SOCLAC 5 µM 1 h pre-incubation (Fig. 5A, 5D)) | effect on number of labelled cells (acid ceramidase (AC) [2]; A549 cell line, SOCLAC 5 µM 1 h (Fig. 5B, 5E)) | effect on number of labelled cells (acid ceramidase (AC) [2]; FD/AC cells, SOCLAC 5 µM 1 h preincubation (Fig. 5C)) |
| --- | --- | --- | --- | --- | --- | --- |
| CCCCCCCC(=O)N[C@@H](C)[C@H](O)CCCCCCCCCCCCN=[N+]=[N-] [RBM5-177, N-((2S,3R)-15-azido-3-hydroxypentadecan-2-yl)octanamide] | transformed into the free amine only by AC | 7 | – | – | – | – |
| CCCCCCCCCCCCC/C=C/[C@@H](O)[C@H](CO)NC(=O)CCl [SOCLAC] | – | – | totally prevented the formation of RBM5-19 from RBM5-177 | significantly decreased | significantly decreasing the number of labelled cells | reduced down to FD levels |
